Laboratory results taken from ChEMBL document CHEMBL1201862, “PubChem BioAssay data set” (2004).
Active and inactive are the calls of the source.

Experiments:
[1] = Trypanosoma cruzi growth suppression in host cells – NIH3T3 host cells, beta-gal luminescence, confirmation (AID 2044); type: functional, cell-based;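 further: intracellular parasites grown in NIH/3T3 mouse fibroblasts as host cells; luminescent beta-galactosidase reporter signal from transgenic T. cruzi replicating inside host cells; inhibitors lower the luminescence signal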
[2] = molecular target: T1, Calpain-2 catalytic subunit (Sus scrofa, UniProt P43367); assay: m-calpain protease blockers, concentration series – biochemical, fluorogenic peptide substrate, dose response (AID 1420); type: functional
T1 sequence (P43367 whole entry): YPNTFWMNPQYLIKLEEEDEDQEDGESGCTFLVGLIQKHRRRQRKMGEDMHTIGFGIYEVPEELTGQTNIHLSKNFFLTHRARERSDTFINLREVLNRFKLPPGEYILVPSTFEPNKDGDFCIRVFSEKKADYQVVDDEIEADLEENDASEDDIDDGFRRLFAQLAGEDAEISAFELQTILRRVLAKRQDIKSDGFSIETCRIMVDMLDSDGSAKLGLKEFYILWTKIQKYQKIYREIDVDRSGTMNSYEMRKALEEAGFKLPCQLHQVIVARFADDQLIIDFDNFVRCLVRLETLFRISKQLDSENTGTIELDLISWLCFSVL

[3] = NIH3T3 cell viability loss – ATP luminescence, mouse fibroblasts, counter-screen, dose response (AID 2010); type: functional, cell-based;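 further: cells exposed to compound for about 90 hours before reading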
Large T antigen = Large T antigen (Simian virus 40, UniProt P03070); type: functional, Betapolyomavirus macacae;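 further: Confirmatory-stage PubChem screen for compounds that inhibit SV40 T antigen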
HeLa = assay: viability loss in HeLa cells – cell-based, 24 h, cherry-picked samples, cytotoxicity control, dose response (AID 504726); type: functional; conditions: Homo sapiens;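 further: potency for cytotoxicity as loss of luminescence signal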
[4] = A Cell Based Secondary Assay To Explore Cytotoxicity of Compounds that Sensitize Mycobacterium Tuberculosis to Beta-Lactam Antibiotics.; type: functional
[5] = Luminescence Cell-Based Dose Retest to Confirm Inhibitors of Cancer Stem Cells. [Related pubchem assays (depositor defined):AID2717, AID2721]; type: functional; conditions: Homo sapiens
[6] = molecular target: Heat shock protein HSP 90-alpha (Homo sapiens, UniProt P07900); type: functional, organism-based
[7] = HIV-1 Vif–A3G interaction blockers – biochemical, TR-FRET, GST-Vif 1-94, biotin-A3G peptide, dose response retest, primary screen (AID 1117319); type: functional;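 further: TR-FRET signal of purified GST-Vif binding a biotinylated A3G peptide; inhibitors lower the FRET signal by blocking Vif and A3G binding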
Cytochrome P450 2C19 = Cytochrome P450 2C19 (Homo sapiens, UniProt P33261); assay: Cytochrome panel assay with activity outcomes. Panel member name: p450-cyp2c19 Compounds with AC50 equal or less than 10 uM are considered active; type: functional; conditions: read-out: AC50
Cytochrome P450 2D6 = Cytochrome P450 2D6 (Homo sapiens, UniProt P10635);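 further: CYP2D6 member of a cytochrome P450 panel assay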
H9c2 = assay: cells; type: functional, cell-based; conditions: Rattus norvegicus, H9c2, Myocardium;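 further: confirmatory concentration-response retest of ultra-high-throughput screening hits for modulation of myocardial damage; cell death induced by hydrogen peroxide oxidative stress; compound pretreatment for 60 min then peroxide exposure for 2 h; potency is for protecting the cells against peroxide damage rather than for killing them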
[8] = molecular target: T2, Corticotropin-releasing factor receptor 2/Corticotropin-releasing factor-binding protein (Homo sapiens, UniProt P24387+Q13324); assay: activators of CRF receptor 2 with binding protein – uHTS hits, confirmation (AID 602473); type: functional; conditions: read-out: EC50_Mean
T2 sequence (Q13324 whole entry): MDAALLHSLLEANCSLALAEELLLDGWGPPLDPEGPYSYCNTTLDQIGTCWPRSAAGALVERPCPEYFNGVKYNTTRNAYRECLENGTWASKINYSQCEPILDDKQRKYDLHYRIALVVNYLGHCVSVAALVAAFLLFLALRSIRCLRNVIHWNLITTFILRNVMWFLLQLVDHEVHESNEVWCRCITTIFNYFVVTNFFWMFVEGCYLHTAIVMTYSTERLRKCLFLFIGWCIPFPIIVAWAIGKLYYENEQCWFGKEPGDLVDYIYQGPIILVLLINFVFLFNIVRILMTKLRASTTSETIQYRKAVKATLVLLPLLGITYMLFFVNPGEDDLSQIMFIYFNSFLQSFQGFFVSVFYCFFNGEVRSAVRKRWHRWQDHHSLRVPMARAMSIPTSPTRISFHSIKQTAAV
T2 sequence (P24387 whole entry): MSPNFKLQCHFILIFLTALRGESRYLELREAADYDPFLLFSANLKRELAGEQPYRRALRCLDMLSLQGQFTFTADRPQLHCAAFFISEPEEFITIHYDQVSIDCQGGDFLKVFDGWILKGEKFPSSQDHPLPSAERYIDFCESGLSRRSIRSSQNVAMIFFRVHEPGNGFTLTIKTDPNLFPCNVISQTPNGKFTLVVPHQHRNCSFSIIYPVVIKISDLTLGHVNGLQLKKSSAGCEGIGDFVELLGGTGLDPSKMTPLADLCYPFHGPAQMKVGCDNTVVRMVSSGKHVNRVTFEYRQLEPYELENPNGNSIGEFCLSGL

[9] = growth inhibition of yeast DHODH-expressing 3D7 parasites – SYBR Green, dry powder samples, dose response (AID 1159570); type: functional, cell-based;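 further: parasite growth measured after 72 hours of compound exposure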
[10] = P. falciparum Dd2 growth inhibitors, dose response, SYBR Green, cherry-picked samples (AID 1159567); type: functional, cell-based
[11] = Dd2 malaria parasite growth inhibition potency – SYBR Green, dry powder samples, dose response (AID 1159566); type: functional, cell-based;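 further: potency for growth inhibition with lower SYBR green DNA signal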
[12] = growth inhibition of PfATP4-mutant resistant parasites – NITD609-resistant line, SYBR Green, dry powder, dose response (AID 1159571); type: functional, cell-based;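 further: parasites synchronized at ring stage by sorbitol before testing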
[13] = viability inhibitors of stage V gametocytes – luminescence, dose response (AID 1117278); type: functional, cell-based;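 further: gametocytes exposed to compound for 24 hours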
[14] = viability loss in human Jurkat cells – cell-based, luminescence, cytotoxicity control for P. falciparum gametocyte viability project, dose response (AID 1117277); type: functional;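 further: potency reflects loss of cellular ATP meaning fewer viable cells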
[15] = viability loss in HeLa cells – cytotoxicity control for MgcRacGAP inhibitor project, dose response (AID 624300); type: functional
[16] = molecular target: T3, Rac GTPase-activating protein 1 (Homo sapiens, UniProt Q9H0H5); assay: blockers of MgcRacGAP-driven Rac1 GTP hydrolysis – biochemical, ADP Hunter fluorescence, primary and confirmatory, confirmation (AID 624330); type: functional
T3 sequence (Q9H0H5 whole entry): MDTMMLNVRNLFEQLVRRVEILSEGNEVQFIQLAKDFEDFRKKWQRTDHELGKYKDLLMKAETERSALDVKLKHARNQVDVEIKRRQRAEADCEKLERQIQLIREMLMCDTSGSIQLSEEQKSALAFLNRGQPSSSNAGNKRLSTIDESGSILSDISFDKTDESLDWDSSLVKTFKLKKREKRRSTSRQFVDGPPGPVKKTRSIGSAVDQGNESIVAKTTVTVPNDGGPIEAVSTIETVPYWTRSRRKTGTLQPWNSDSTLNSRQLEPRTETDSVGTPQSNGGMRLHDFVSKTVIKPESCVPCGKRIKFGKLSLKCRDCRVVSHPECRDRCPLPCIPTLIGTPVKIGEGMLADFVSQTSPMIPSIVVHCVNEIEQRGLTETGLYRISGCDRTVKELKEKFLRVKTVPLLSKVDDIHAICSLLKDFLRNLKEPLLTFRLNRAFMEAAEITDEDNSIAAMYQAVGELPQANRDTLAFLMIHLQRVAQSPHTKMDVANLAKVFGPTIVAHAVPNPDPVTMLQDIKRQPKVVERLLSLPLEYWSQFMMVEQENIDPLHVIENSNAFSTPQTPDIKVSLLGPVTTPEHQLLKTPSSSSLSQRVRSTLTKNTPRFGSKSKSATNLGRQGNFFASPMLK

Chain of Large T antigen (P03070 whole entry): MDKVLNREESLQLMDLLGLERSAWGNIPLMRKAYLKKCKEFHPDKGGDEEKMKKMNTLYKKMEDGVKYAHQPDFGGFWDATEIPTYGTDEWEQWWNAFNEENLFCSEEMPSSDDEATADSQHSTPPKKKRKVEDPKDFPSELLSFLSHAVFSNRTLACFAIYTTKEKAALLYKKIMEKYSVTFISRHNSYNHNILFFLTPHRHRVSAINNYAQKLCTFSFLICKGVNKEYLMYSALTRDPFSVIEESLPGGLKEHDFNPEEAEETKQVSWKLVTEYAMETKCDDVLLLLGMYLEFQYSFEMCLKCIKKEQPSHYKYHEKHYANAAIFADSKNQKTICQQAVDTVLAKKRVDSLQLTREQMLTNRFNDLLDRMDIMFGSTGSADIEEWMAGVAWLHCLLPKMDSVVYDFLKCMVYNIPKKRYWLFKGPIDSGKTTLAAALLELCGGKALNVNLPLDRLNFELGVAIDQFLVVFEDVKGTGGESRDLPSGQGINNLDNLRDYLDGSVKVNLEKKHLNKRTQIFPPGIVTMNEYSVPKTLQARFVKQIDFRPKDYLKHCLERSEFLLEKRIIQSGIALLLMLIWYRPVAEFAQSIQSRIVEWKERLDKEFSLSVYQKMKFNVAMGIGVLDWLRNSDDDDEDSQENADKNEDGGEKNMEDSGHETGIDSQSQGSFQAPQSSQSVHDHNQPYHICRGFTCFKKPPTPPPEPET
Chain of Cytochrome P450 2C19 (P33261 whole entry): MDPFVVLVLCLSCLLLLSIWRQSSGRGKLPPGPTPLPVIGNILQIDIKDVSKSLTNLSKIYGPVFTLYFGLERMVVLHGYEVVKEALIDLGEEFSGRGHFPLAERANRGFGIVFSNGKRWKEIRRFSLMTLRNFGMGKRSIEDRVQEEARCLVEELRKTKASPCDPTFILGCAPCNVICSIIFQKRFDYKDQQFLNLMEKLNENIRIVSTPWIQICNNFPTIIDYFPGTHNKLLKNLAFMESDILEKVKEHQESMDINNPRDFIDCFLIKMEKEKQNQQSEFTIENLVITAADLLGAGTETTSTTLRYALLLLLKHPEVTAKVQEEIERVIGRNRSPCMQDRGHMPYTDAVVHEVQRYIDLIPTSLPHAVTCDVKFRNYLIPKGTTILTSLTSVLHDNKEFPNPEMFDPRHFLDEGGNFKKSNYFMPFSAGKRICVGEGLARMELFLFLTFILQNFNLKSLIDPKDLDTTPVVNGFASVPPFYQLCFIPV
Chain of Cytochrome P450 2D6 (P10635 whole entry): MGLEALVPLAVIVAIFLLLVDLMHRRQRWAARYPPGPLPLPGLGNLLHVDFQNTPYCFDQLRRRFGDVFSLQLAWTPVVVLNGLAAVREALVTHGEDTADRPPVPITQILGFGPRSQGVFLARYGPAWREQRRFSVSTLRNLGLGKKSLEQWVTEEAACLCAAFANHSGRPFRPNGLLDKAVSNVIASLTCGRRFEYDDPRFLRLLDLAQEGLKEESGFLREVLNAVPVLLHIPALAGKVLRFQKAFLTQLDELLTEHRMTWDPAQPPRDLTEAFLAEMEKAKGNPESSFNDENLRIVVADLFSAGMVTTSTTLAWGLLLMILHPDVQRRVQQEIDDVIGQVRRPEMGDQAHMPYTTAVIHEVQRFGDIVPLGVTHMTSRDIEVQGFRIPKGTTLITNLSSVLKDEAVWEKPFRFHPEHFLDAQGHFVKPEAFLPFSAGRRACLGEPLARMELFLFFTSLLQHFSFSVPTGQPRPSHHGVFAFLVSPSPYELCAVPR

Compound: CCS(=O)(=O)NCC(c1cccnc1)N1CCN(c2ccc(OC)cc2)CC1 (configuration not stated)
- EC50 [1]: 0.916 µM (active)
- IC50 [2]: 24.7 µM (not active)
- EC50 [3]: 22 µM (active)

Compound: COc1cc(-c2nc3cnccn3c2Nc2ccccc2)ccc1O
- IC50 (Large T antigen): 5.05 µM (active)

Compound: N#C/C(=C\c1ccc(-c2ccccc2[N+](=O)[O-])o1)C(N)=O
- AC50 (HeLa): 83.5 µM (active)

Compound: Oc1nc(-c2ccccc2Cl)nc2c1sc(=S)n2-c1ccccc1
- IC50 [2]: 41.7 µM (not active)

Compound: Cc1cc2ccccn2c1C(=O)c1ccc([N+](=O)[O-])o1
- CC50 [4]: 8.69 µM (active)
- AC50 [5]: 2.84 µM (active)
- AC50 [6]: 3.38 µM (active)

Compound: O=C1NC(=O)N(Cc2ccc(F)cc2)C(=O)/C1=C\c1ccoc1
- IC50 (Large T antigen): 56.4 µM (active)

Compound: COc1ccc(OC)c(/C(O)=C/C(=O)C(=O)Nc2ccccc2OC)c1
- IC50 [7]: > 100 µM (active)

Compound: Cc1[nH]c2c(C)cccc2c1CCNC(=O)c1ccc2c(c1[N+](=O)[O-])C(=O)c1ccccc1C2=O
- CC50 [4]: 17.2 µM (active)
- AC50 (Cytochrome P450 2C19): 0.398 µM (inconclusive)
- AC50 (Cytochrome P450 2D6): 2 µM (inconclusive)

Compound: CC(C)(C)/N=C/c1c(O)ccc2oc3c(c12)CCCC3
- IC50 (H9c2): > 79 µM (inactive)
- EC50 [8]: > 53 µM (inactive)

Compound: CCOc1cccc(SCc2noc(C(=O)NCC3CCCO3)c2C(=O)O)c1 (configuration not stated)
- IC50 [7]: > 100 µM (active)

Compound: C[C@@H]1CN([C@H](C)CO)C(=O)c2cc(/C=C/c3ccccc3)cnc2O[C@H]1CN(C)C(=O)NC1CCCCC1
- AC50 [9]: 2.03 µM (active)
- AC50 [10]: 2.73 µM (active)
- AC50 [11]: 1.06 µM (active)
- AC50 [12]: 1.76 µM (active)

Compound: CN(C)S(=O)(=O)N(CC(=O)Nc1ccccc1)c1ccccc1
- IC50 [13]: > 109 µM (inactive)
- IC50 [14]: > 83.3 µM (inactive)

Compound: Nc1ccc(Cn2ccc3c4c(N)nc(N)nc4ccc32)cc1
- CC50 [15]: 49.5 µM (active)
- IC50 [16]: 77 µM (active)

Compound: CCn1c(SCC(=O)n2c(C)c(C)c3ccccc32)nnc1-c1ccco1
- IC50 [7]: > 100 µM (active)

Compound: Cc1ccc(N=Nc2ccc(N)cc2C)c(S(N)(=O)=O)c1
- IC50 [7]: > 100 µM (active)
